Data as given in patent publication US10265383B2, “Treatment of radiation injury using ghrelin” (priority 2014, dated 2019).
Where no end group is shown, it is not given here. The star is where a group is joined. Octanoyl = CCCCCCCC(=O)*

Key:
[1] = Percent body weight change after WBI; type: in vivo, rat; conditions: 10 Gy WBI rats; treatment starting at 24 h; 30 day period
Protocol: (§1) Animal model of whole body irradiation. Rats were exposed to whole body irradiation (WBI) of 10 Gray (Gy) using a Gammacell® 1000 Irradiator (Atomic Energy of Canada Ltd) [radiation source: Cesium-137 (^137Cs)] delivered at a dose rate of about 2.5 GY/min. The animals were sedated with intra-peritoneal pentobarbital (40 mg/kg BW) prior to irradiation. During radiation, the container rotated continuously in front of the radiation source for even exposure. The animals were then returned to their cages, and food and water were provided.
Survival study. To assess the survival benefits of human ghrelin, animals were exposed to 10 Gy WBI and treated with human ghrelin (20 nmol/rat) subcutaneously once a day, with the first dose given either at 24 h or 48 h after WBI, for 6 days and observed for 30 days, and the survival recorded. The surviving animals beyond 30 days were then euthanized. Rats in the survival study were monitored twice daily and weighed once a day during the 30 day survival period. Net weight change was calculated as: % Weight Change ((weight at each day−weight at day 0)/weight at day 0)×100.

serum glucose = experiment: Serum glucose level after WBI; type: in vivo, rat; conditions: Day 7 after 10 Gy WBI; WBI reduced it by 30%
Protocol: as §1
(§2) Blood and Tissue Collection after WBI. Rats exposed to 10 Gy WBI were treated with 20 nmol/rat human ghrelin once a day for 6 days starting at 24 h after radiation. At the 7th day, rats were euthanized, and blood, liver and the small intestine were removed under sterile conditions. The blood was allowed to clot and following centrifugation, the serum was transferred into pyrogenic free sterile tubes, and stored at −80° C. until further analysis. Liver (0.25 g) was snap-frozen in liquid nitrogen and stored at −80° C. for subsequent bacterial translocation analysis. […]
(§3) Serum glucose and albumin levels. Serum levels of glucose and albumin were determined using Liquid Glucose Hexokinase Reagent Set and Albumin Reagent Set (Pointe Scientific, Inc.) respectively according to manufacturer's instructions.

serum albumin = experiment: Serum albumin level after WBI; type: in vivo, rat; conditions: Day 7 after 10 Gy WBI; WBI decreased it by 19%
Protocol: as §1, §2, §3

rat ileum = experiment: Gut permeability, ex-vivo isolated everted ileal sac (FD4 clearance); type: in vivo; conditions: Day 7 after 10 Gy WBI, 20 nmol/rat for 6 days from 24 h
Protocol: as §1
Blood and Tissue Collection after WBI. Rats exposed to 10 Gy WBI were treated with 20 nmol/rat human ghrelin once a day for 6 days starting at 24 h after radiation. […]
Gut Permeability. Small intestinal mucosal barrier function was assessed by using the ex-vivo isolated everted ileal sac as originally described by Wattanasirichaigoon et al. in 1999 [26] and used by others. […] The length and the diameter of the gut sac were then measured. […] Fluorescence measurements were made with a CYTOFLUOR 2 fluorescence plate reader (PerSeptive Biosystems, Framingham, Mass.) at an excitation wavelength of 480 nm and an emission wavelength of 520 nm. Gut permeability was expressed as the mucosal-to-serosal clearance of FD4 as described in detail by Wattanasirichaigoon et al.. […]

rat jejunum = experiment: Histopathology of jejunum after WBI (H&E, PAS); type: in vivo; conditions: Day 7 after 10 Gy WBI
Protocol: as §1
Blood and Tissue Collection after WBI. Rats exposed to 10 Gy WBI were treated with 20 nmol/rat human ghrelin once a day for 6 days starting at 24 h after radiation. At the 7th day, rats were euthanized, and blood, liver and the small intestine were removed under sterile conditions. The blood was allowed to clot and following centrifugation, the serum was transferred into pyrogenic free sterile tubes, and stored at −80° C. until further analysis. Liver (0.25 g) was snap-frozen in liquid nitrogen and stored at −80° C. for subsequent bacterial translocation analysis. Small intestine, 10-15 cm of the ileum, was harvested for gut permeability studies, 10 cm of jejunum was collected for histopathology, and the remaining 10 cm jejunal segment each was collected for RNA and protein analyses.
Histopathology. Jejunal segments were fixed in 1:10 buffered formalin and embedded in paraffin. Tissue blocks were sectioned at a thickness of 5 μm, transferred to glass slides, and stained with hematoxylin and eosin (H&E). The sections were observed under 100× magnification using a Nikon Eclipse Ti inverted microscope equipped with the Nikon Digital Sight Camera (Nikon Inc. Melville, N.Y.). Villus height was determined by measuring the distance from villus-crypt junction to the villus tip and crypt depth was determined by the distance from villus-crypt junction to basal crypt cells using the Nikon software. For each rat, 100 measurements of villus height and crypt depth were obtained from 5 circumferences. Periodic Acid Schiff (PAS) stained sections were used to quantify the number of goblet cells per villus. Three rats in each group were used to calculate the mean.

## ghrelin (GSS(Octanoyl)FLSPEHQRVQQRKESKKPPAKLQPR; listed as Homo sapiens) [human ghrelin]
[1]
  percent body weight change: consistent increase in the body weight
Serum glucose
  serum glucose: restored to near Sham levels
Serum albumin
  serum albumin levels: restored to sham values
Rat ileum
  gut permeability, reduction from Vehicle: 38%
Rat jejunum; 6 days treatment starting at 24 h
  intestinal integrity and morphology (H&E): improved the intestinal integrity and morphology
Rat jejunum; jejunum PAS stain, vehicle 29%
  goblet cell number/villus, increase from Sham: 5%
Rat jejunum; jejunum, 20 nmol/rat for 6 days from 24 h, vehicle 14%
  crypt depth, reduction from Sham: 2.8%
Rat jejunum; jejunum, 20 nmol/rat for 6 days from 24 h, vehicle 19%
  villus length, reduction from Sham: 2.0%
